The values below come from patent US5908868A, “Retinol derivatives useful for enhancing immune response” (priority 1995, dated 1999).

“Also recorded” adds a separate entry of the source. Read-outs that look alike come from different tables or passages of the source.

Data set [1] deals with thymocytes. The data set is described as follows: Proliferation of Con A activated thymocytes in serum-free medium. In kind it is cell-based, BALB/c mouse. The note with it: Con A 0.5 μg/ml, retinol 3×10^-6 M, ITLB. On the procedure:
Purified thymocytes (5×10^5 cells/well) were stimulated by TCR crosslinking with immobilized anti-CD3e antibody (FIG. 15A) or 0.4 μg/ml Con A (FIG. 15B) in serum-free ITLB medium. The indicated amounts of retinoids were added either once at the beginning of the experiment (marked as "1x") or every 12 hours thereafter (marked as "6x"). DNA synthesis was measured after 72 hours by tritiated thymidine uptake as described.
Thymuses of 3 to 6-week-old BALB/c mice were teased in serum-free RPMI medium supplemented with 1% BSA, 10^-6 M linoleic acid and antibiotics. […] Cell viability was evaluated by trypan blue dye exclusion. To determine the extent of depletion of accessory cells, samples were stained with FITC-conjugated anti-Fc receptor antibody and analyzed by flow cytometry on a FACScan instrument (Becton Dickinson). No FcR-bearing cells were detected by this procedure.
Cells were cultured in serum-free medium, referred to as ITLB, containing RPMI 1640 supplemented with 8×10^-7 M insulin (5 μg/ml), 7×10^-8 M transferrin (5 μg/ml), 2×10^-6 M linoleic acid, 2×10^-6 M delipidated BSA (0.12 mg/ml), 2 mM L-glutamine, 1 mM sodium pyruvate and antibiotics. […] The optimal concentration for stimulation of T cells was determined for each batch of anti-CD3 mAb and Con A. The optimal range of Con A was particularly narrow in serum-free medium (0.5-0.2 μg/ml) and varied with the cell density used. […]

The test system of data set [2] is thymocytes. The data set is described as follows: Growth-stimulating effect of retinol on anti-CD3 activated thymocytes in the presence of interleukins. In kind it is cell-based, BALB/c mouse. The note with it: 3 days.
Another data set concerns SKL3. The data set is described as follows: Retinol metabolism. In kind it is in vitro ADME, human. On the procedure: (§1) FBS. The FBS was preincubated at room temperature with 14.4 uCi [^3 H
(§2) retinol (NEN) for 4 h. The cell pellet was washed twice with PBS. The
(§3) retinoid were extracted according to MClean et al. 90 and separated on an
(§4) analytical c18 reverse phase column according to FIG. 7. The DPM wer
(§5) determined using an online scintillation counter.

The subject of the next data set is Hela. Kind of data set: Retinol metabolism. In kind it is in vitro ADME, human. The method, then:
as §1, §2, §3, §4, §5

A further data set concerns 5/2. Kind of data set: Retinol metabolism. It counts as in vitro ADME, human. On the procedure:
as §1, §2, §3, §4, §5

A further data set relates to N-tera2. Kind of data set: Retinol metabolism. It counts as in vitro ADME, human. The method, then:
as §1, §2, §3, §4, §5

For a further data set, the system named is SK-N-SH. The data set is described as follows: Retinol metabolism. In kind it is in vitro ADME, human. On the procedure:
as §1, §2, §3, §4, §5

For a further data set, the system named is Ket. Kind of data set: Retinol metabolism. In kind it is in vitro ADME, human. On the procedure: as §1, §2, §3, §4, §5
The next data set has as its system Raji (4°). Kind of data set: Retinol metabolism. In kind it is in vitro ADME, human. The method, then: as §1, §2, §3, §4, §5
In another data set the test system is Raji (37°). Kind of data set: Retinol metabolism. It counts as in vitro ADME, human. On the procedure: as §1, §2, §3, §4, §5
The conditions of data set [3]: cited from earlier work.
Another data set relates to 26 mammalian cells. The data set is described as follows: 14HRR production from 3H retinol in mammalian cell lines. It counts as in vitro ADME. To be noted: 3H retinol bound to fetal calf serum. An excerpt: The use of ^3 H retinol bound to fetal calf serum was used as an assay to test for P3 in other cell lines.
The use of ^3 H retinol bound to fetal calf serum was used as an assay to test for 14HRR in other cell lines.

A further data set deals with B lymphocytes. The data set is described as follows: B cell growth/survival. In kind it is cell-based. To be noted: on a concentration basis.
The nature of data set [4]: Chemical stability during extraction. In kind it is physicochemical.
For a further data set, the system named is fibroblasts. The data set is described as follows: Expression of immediate early genes. In kind it is cell-based. To be noted: unpublished work.
Data set [5] in a line: Stability (half-life) in serum-free tissue culture. In kind it is in vitro ADME.

With `CC1=C(/C=C/C(C)=C/C=C/C(C)=C/CO)C(C)(C)CCC1` [retinol, all-trans retinol], the thymocyte proliferation entry in the data set with thymocytes [1] is “growing exponentially”. In addition, the “CPM anti-CD3, 10^-6 M Retinol” value with thymocytes [2] was 79,247 ± 17,567 CPM. In addition, the Total cts. with SKL3 (SKL3) is 1.6 × 10^5 cts; in the data set on Hela it was 1.0 × 10^5 cts; in the data set on 5/2 (5/2), 5.7 × 10^5 cts; in the data set with N-tera2 (N-tera2) it was 13.5 × 10^5 cts; in the data set on SK-N-SH, 2.0 × 10^5 cts; in the data set with Ket, 4.6 × 10^5 cts. Also, the Total cts. is 2.5 × 10^5 cts in the data set on Raji (4°) (2.5 × 10^6 cells) and 4.0 × 10^5 cts in the data set on Raji (37°) (2.5 × 10^6 cells). In addition, the “Ester (% of taken up retinol)” value worked out at 24% with SKL3 (SKL3, overnight); 20% with Hela (overnight); 24% with 5/2 (5/2, overnight); 97% with N-tera2 (N-tera2, overnight); 25% in the data set with SK-N-SH (overnight); 41% in the data set on Ket (overnight). For the same compound, the “Ester (% of taken up retinol)” value with Raji (4°) (overnight) is listed as 0%; in the data set on Raji (37°) (overnight) it was 14%. Further, the “P3 (% of taken up retinol)” value is recorded as 2% in the data set with SKL3 (SKL3, overnight); 3% in the data set on Hela (overnight); 4% in the data set on 5/2 (5/2, overnight); 0.4% with N-tera2 (N-tera2, overnight); 0.9% in the data set with SK-N-SH (overnight); 3% in the data set on Ket (overnight). In addition, the “P3 (% of taken up retinol)” value with Raji (4°) (overnight) was 0%; with Raji (37°) (overnight) it was 3%. Also, the “Retinol (% of taken up retinol)” value in the data set with SKL3 (SKL3, overnight) is given as 71%; in the data set on Hela (overnight) it was 71%; in the data set on 5/2 (5/2, overnight), 67%; in the data set on N-tera2 (N-tera2, overnight), 0.7%; in the data set with Ket (overnight), 52%; in the data set with Raji (4°) (overnight), 99%. Also, the “Retinol (% of taken up retinol)” value with Raji (37°) (overnight) is 79%. The half-life in [3] (cell culture, serum-free medium (32)) is below 24 h; in [3] (serum-free tissue culture medium (32)), around 24 h. Also, the “radioactivity peak at 14HRR (P3) position” value in the data set on 26 mammalian cells is “radioactivity peak at the position where 14HRR normally elutes; also recorded: radioactivity peak at the position where P3 normally elutes”.

Consider `CC(C=CC=C(C)C(O)CO)=CC=C1C(C)=CCCC1(C)C` (centres unmarked) [14HRR, 14-hydroxy-4,14-retro-retinol], for which the “activity relative to all-trans retinol in B cells” value with B lymphocytes is 10-30 fold more active. The “stability to acid extraction” value in data set [4] (acid extraction step) is “does not survive an acid extraction step”. In addition, the stability in chloroform result in data set [4] (chloroform) is reported as “unstable in chloroform”. Also, the “expression of immediate early genes” value in the data set on fibroblasts is “facilitates the expression of immediate early genes in fibroblasts”. Besides, the “lability relative to retinal” value in data set [5] is reported as “much more labile molecule than retinal”.

By half-life is commonly meant how long it takes for the measured level to halve.
